Counter-ions that a name gives are not always drawn.
Assays:
[1] = target: Ba/F3 ERBB2 A775_G776insYVMA (Homo sapiens, UniProt P04626, DUP772-775, cells depend on it); assay: Cell viability assay, Ba/F3 ERBB2 A775_G776insYVMA; type: cell-based, mouse; conditions: Ba/F3 ERBB2 YVMA cells, cell viability, 72 hours, CellTiter Glo; Table B5; read-out: Ba/F3 ERBB2 YVMA, IC50
Summary of the method: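 Viability after 72 h compound treatment (37 °C, 5% CO2) was quantified by CellTiter-Glo luminescence of intracellular ATP, with sigmoidal dose-response fitting. Cells were retrovirally engineered Ba/F3 lines whose growth depends on the mutant human ERBB2 in place of IL-3, plated at 3000 per well.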

[2] = target: T1, phosphorylated ERBB2 (pERBB2) (Homo sapiens, UniProt P04626); assay: Detection of phosphorylated ERBB2 (pERBB2) by ELISA in BT-474 cells; type: cell-based; conditions: four hours incubation
T1 construct: endogenous in cells; host or cells: BT-474
Summary of the method: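 Phospho-ERBB2 in lysates was quantified by sandwich ELISA (A450, TMB) after 4 h compound exposure at 37 °C of BT-474 cells seeded at 2.0×10^4 per well. Compounds tested at 10 µM to 0.01 nM final in four-fold steps; activity normalized to DMSO (0.1%) high and cell-free low controls.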

[3] = target: T2, phosphorylated EGFR (pEGFR) (Homo sapiens, UniProt P00533); assay: Detection of phosphorylated EGFR (pEGFR) in EGF-stimulated A431 cells; type: cell-based; conditions: A431 cells (10% FBS), 4 hours incubation, EGF 30 ng/mL 10 minutes, AlphaLISA
T2 construct: performed to measure phosphorylated EGFR levels using A431 cells (10% FBS); endogenous in cells; host or cells: A431
Summary of the method: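 AlphaLISA read-out of EGFR phosphorylation after a 10-min EGF pulse (30 ng/mL final). A431 cells (10% FBS) had been exposed to compound for 4 h at 37 °C. IC50 was fitted from % inhibition normalised to DMSO and staurosporine control lysates.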

T2 sequence (P00533 25-1210): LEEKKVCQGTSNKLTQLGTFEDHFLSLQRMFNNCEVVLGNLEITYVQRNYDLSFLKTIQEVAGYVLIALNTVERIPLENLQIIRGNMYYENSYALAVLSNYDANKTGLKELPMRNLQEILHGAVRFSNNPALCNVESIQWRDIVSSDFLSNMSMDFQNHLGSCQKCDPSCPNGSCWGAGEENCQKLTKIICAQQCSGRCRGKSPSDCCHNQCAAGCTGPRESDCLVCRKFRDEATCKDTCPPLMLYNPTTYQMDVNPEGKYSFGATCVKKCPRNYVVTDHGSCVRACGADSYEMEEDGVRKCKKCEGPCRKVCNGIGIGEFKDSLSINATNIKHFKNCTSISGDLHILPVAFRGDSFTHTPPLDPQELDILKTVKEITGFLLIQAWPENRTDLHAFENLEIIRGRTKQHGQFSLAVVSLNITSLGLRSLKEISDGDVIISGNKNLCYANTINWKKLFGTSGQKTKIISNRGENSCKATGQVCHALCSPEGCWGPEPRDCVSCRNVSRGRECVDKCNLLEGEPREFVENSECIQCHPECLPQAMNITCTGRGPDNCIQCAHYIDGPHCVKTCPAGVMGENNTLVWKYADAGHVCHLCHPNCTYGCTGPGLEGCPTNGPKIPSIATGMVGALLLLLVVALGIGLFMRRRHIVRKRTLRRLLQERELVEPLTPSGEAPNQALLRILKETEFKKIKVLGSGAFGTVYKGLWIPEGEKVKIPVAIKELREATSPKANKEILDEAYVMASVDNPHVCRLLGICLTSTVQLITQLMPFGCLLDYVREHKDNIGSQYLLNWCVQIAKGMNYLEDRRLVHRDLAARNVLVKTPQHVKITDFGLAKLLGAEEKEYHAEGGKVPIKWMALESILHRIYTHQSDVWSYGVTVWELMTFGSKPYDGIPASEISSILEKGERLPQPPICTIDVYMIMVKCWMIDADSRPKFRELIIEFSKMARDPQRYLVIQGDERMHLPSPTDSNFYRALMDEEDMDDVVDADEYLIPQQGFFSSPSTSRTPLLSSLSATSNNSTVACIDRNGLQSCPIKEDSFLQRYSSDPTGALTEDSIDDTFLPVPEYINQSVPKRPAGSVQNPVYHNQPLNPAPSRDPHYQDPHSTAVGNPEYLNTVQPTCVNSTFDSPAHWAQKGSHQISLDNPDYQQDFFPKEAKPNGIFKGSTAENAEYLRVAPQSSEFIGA
Ba/F3 ERBB2 A775_G776insYVMA, sequence (P04626 with tags, fused parts or gaps DUP772-775): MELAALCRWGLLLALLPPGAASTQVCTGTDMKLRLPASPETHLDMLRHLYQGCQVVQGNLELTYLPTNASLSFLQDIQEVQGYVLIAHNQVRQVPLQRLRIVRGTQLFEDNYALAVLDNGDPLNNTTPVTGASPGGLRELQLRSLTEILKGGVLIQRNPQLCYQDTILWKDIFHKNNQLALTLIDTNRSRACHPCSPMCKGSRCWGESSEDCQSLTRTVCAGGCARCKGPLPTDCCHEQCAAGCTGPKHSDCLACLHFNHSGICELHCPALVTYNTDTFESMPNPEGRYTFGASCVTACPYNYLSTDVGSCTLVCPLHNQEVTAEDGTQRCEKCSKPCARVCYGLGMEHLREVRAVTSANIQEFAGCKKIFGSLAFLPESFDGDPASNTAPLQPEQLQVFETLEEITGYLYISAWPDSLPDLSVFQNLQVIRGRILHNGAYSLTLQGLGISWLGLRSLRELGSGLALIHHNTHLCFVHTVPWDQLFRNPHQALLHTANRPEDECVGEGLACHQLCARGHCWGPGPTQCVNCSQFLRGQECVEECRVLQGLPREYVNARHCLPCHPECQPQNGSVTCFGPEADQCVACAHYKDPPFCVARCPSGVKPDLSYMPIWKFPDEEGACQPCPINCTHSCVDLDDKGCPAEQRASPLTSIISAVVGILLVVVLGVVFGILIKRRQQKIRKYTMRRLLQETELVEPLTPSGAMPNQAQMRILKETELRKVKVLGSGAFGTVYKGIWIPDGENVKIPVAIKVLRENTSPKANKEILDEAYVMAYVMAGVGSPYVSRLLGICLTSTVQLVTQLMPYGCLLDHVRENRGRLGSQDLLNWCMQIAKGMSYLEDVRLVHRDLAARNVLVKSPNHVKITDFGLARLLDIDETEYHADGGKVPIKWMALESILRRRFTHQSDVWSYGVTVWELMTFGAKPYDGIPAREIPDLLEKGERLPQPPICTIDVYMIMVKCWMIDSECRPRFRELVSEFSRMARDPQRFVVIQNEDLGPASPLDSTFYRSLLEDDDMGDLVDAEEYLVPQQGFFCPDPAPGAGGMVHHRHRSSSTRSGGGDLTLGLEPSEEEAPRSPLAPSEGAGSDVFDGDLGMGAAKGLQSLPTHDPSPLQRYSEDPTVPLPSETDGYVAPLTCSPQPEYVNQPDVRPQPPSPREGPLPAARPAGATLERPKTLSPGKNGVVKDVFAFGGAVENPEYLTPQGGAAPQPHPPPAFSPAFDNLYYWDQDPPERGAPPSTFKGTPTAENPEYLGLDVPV
T1 sequence (P04626 23-1255): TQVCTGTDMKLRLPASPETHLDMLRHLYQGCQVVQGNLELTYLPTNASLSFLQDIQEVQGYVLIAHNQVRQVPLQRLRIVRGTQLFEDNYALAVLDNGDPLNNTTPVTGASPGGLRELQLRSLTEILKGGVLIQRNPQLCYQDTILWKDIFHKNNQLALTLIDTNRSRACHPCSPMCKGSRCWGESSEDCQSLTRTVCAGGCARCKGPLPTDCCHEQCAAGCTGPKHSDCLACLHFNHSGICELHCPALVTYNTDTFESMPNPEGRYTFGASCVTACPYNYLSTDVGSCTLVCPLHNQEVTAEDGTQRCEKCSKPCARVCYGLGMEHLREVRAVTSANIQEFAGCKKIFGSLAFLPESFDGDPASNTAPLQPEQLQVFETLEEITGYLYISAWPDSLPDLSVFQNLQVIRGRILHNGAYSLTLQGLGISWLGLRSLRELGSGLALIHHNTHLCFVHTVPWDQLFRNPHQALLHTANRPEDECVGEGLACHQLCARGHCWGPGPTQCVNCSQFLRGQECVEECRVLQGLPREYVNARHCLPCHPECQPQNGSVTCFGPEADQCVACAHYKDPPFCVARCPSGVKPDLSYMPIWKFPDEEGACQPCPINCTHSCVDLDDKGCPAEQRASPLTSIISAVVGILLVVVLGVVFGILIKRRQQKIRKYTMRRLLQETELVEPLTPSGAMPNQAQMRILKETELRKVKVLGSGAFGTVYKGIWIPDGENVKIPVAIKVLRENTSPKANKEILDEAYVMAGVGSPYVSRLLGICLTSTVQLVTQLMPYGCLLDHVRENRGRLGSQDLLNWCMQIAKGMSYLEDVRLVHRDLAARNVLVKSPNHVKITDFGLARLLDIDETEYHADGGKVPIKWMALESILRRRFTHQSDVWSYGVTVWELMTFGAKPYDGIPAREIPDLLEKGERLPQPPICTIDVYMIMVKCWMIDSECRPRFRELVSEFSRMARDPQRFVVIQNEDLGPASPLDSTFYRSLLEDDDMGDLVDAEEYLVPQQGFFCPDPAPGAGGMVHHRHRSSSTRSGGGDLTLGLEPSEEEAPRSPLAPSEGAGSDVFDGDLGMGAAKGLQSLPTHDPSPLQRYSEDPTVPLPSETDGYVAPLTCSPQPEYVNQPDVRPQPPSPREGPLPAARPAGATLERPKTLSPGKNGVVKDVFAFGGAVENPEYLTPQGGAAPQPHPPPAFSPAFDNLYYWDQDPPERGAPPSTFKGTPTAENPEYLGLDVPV

| IC50 [2] [µM] | IC50 [3] [µM] | Compound | GI50 [1] [µM] |
| --- | --- | --- | --- |
| 0.0801 | 2.15 | C=C1CCN(c2ccc3ncnc(Nc4ccc(Oc5ccc6cncnc6c5)c(C)c4)c3c2)C1=O [Compound 50, 1-(4-{[3-methyl-4-(quinazolin-7-yloxy)phenyl]amino}quinazolin-6-yl)-3-methylidenepyrrolidin-2-one] | 0.0464 |
| 0.0812 | > 10 | C=C1CCN(c2ccc3ncnc(Nc4ccc(Cc5ccc6c(c5)ncn6C)c(C)c4)c3c2)C1=O [Compound 52, 1-[4-({3-methyl-4-[(1-methyl-1,3-benzodiazol-5-yl)methyl]phenyl}amino)quinazolin-6-yl]-3-methylidenepyrrolidin-2-one] | 0.0219 |
| 0.0356 | 0.076 | Cc1cc(Nc2ncnc3ccc(N4CC/C(=C\CCN(C)C)C4=O)nc23)ccc1Oc1ccc2c(c1)ncn2C [Compound 53, (3E)-3-[3-(dimethylamino)propylidene]-1-[4-({3-methyl-4-[(1-methyl-1,3-benzodiazol-5-yl)oxy]phenyl}amino)pyrido[3,2-d]pyrimidin-6-yl]pyrrolidin-2-one] | 0.00205 |
| 0.042 | 1.54 | Cc1cc(Nc2ncnc3ccc(N4CC/C(=C\CN(C)C)C4=O)nc23)ccc1Cc1ccc2c(c1)ncn2C [Compound 54, (3E)-3-[2-(dimethylamino)ethylidene]-1-[4-({3-methyl-4-[(1-methyl-1,3-benzodiazol-5-yl)methyl]phenyl}amino)pyrido[3,2-d]pyrimidin-6-yl]pyrrolidin-2-one] | 0.00537 |
| 0.0231 | 0.25 | Cc1cc(Nc2ncnc3ccc(N4CC/C(=C\CN(C)C)C4=O)nc23)ccc1Oc1ccn(C(F)F)c(=O)c1 [Compound 55, 1-(difluoromethyl)-4-[4-({6-[(3E)-3-[2-(dimethylamino)ethylidene]-2-oxopyrrolidin-1-yl]pyrido[3,2-d]pyrimidin-4-yl}amino)-2-methylphenoxy]pyridin-2-one] | 0.023 |
| 6.52 | > 10 | C=C1CCN(c2cc3c(Nc4ccc(Oc5ccn6ncnc6c5)c(C)c4)ncnc3cc2OCCN(C)C)C1=O [Compound 56, 1-{7-[2-(dimethylamino)ethoxy]-4-[(3-methyl-4-{[1,2,4]triazolo[1,5-a]pyridin-7-yloxy}phenyl)amino]quinazolin-6-yl}-3-methylidenepyrrolidin-2-one] | > 0.5 |
| 0.0607 | 0.71 | C=C1C(=O)N(c2ccc3ncnc(Nc4ccc(Oc5ccc6c(c5)ncn6C)c(C)c4)c3n2)C[C@H]1C [Compound 59, (4S)-4-methyl-1-[4-({3-methyl-4-[(1-methyl-1,3-benzodiazol-5-yl)oxy]phenyl}amino)pyrido[3,2-d]pyrimidin-6-yl]-3-methylidenepyrrolidin-2-one] | 0.0134 |
| 0.012 | 3.04 | Cc1cc(Nc2ncnc3cnc(N4CC/C(=C\CCN(C)C)C4=O)cc23)ccc1Oc1ccn2ncnc2c1 [Compound 60, (E)-1-(4-(4-([1,2,4]triazolo[1,5-a]pyridin-7-yloxy)-3-methylphenylamino)pyrido[3,4-d]pyrimidin-6-yl)-3-(3-(dimethylamino)propylidene)pyrrolidin-2-one formate] | 0.0225 |
| 0.132 | 1.01 | Cc1cc(Nc2ncnc3ccc(N4CC/C(=C\CN(C)C)C4=O)nc23)ccc1Oc1ccc2nccnc2c1 [Compound 61, (E)-3-(2-(dimethylamino)ethylidene)-1-(4-(3-methyl-4-(quinoxalin-6-yloxy)phenylamino)pyrido[3,2-d]pyrimidin-6-yl)pyrrolidin-2-one] | 0.00715 |
| 0.0239 | 0.212 | Cc1cc(Nc2ncnc3ccc(N4CC/C(=C\CN(C)C)C4=O)nc23)ccc1Oc1cccnc1 [Compound 62, (3E)-3-[2-(dimethylamino)ethylidene]-1-(4-{[3-methyl-4-(pyridin-3-yloxy)phenyl]amino}pyrido[3,2-d]pyrimidin-6-yl)pyrrolidin-2-one] | 0.00436 |
| 0.128 | > 10 | CCn1cnc2cc(Oc3ccc(Nc4ncnc5ccc(N6CC/C(=C\CN(C)C)C6=O)nc45)cc3C)ccc21 [Compound 65, (3E)-3-[2-(dimethylamino)ethylidene]-1-[4-({4-[(1-ethyl-1,3-benzodiazol-5-yl)oxy]-3-methylphenyl}amino)pyrido[3,2-d]pyrimidin-6-yl]pyrrolidin-2-one] | 0.0364 |
| 0.0342 | 0.0936 | Cc1cc(Nc2ncnc3ccc(N4CC/C(=C\CN(C)C)C4=O)nc23)ccc1Oc1ccc2ocnc2c1 [Compound 66, (E)-1-(4-((4-(benzo[d]oxazol-5-yloxy)-3-methylphenyl)amino)pyrido[3,2-d]pyrimidin-6-yl)-3-(2-(dimethylamino)ethylidene)pyrrolidin-2-one] | 0.00195 |
| 0.0442 | 0.0532 | Cc1cc(Nc2ncnc3ccc(N4CC/C(=C\CN(C)C)C4=O)nc23)ccc1Oc1ccc2scnc2c1 [Compound 67, (E)-1-(4-((4-(benzo[d]thiazol-5-yloxy)-3-methylphenyl)amino)pyrido[3,2-d]pyrimidin-6-yl)-3-(2-(dimethylamino)ethylidene)pyrrolidin-2-one] | 0.00182 |
| 0.0305 | 0.973 | Cc1cc(Nc2ncnc3ccc(N4CC/C(=C\CN(C)C)C4=O)nc23)ccc1Oc1ccc2c(c1)nnn2C [Compound 68, (3E)-3-[2-(dimethylamino)ethylidene]-1-[4-({3-methyl-4-[(1-methyl-1,2,3-benzotriazol-5-yl)oxy]phenyl}amino)pyrido[3,2-d]pyrimidin-6-yl]pyrrolidin-2-one] | 0.00381 |
| 0.0564 | > 10 | Cc1c(Oc2ccc3c(c2)ncn3C)ccc(Nc2ncnc3ccc(N4CC/C(=C\CN(C)C)C4=O)nc23)c1F [Compound 69, (3E)-3-[2-(dimethylamino)ethylidene]-1-[4-({2-fluoro-3-methyl-4-[(1-methyl-1,3-benzodiazol-5-yl)oxy]phenyl}amino)pyrido[3,2-d]pyrimidin-6-yl]pyrrolidin-2-one] | 0.00357 |
| 0.0344 | 1.99 | Cc1cc(Nc2ncnc3ccc(N4CC/C(=C\CN(C)C)C4=O)nc23)c(F)cc1Oc1ccc2c(c1)ncn2C [Compound 70, (3E)-3-[2-(dimethylamino)ethylidene]-1-[4-({2-fluoro-5-methyl-4-[(1-methyl-1,3-benzodiazol-5-yl)oxy]phenyl}amino)pyrido[3,2-d]pyrimidin-6-yl]pyrrolidin-2-one] | 0.00429 |
| 0.0257 | 0.273 | Cc1cc(Nc2ncnc3ccc(N4CC/C(=C\CN(C)C)C4=O)nc23)ccc1Oc1ccn2ccnc2c1 [Compound 71, (3E)-3-[2-(dimethylamino)ethylidene]-1-{4-[(4-{imidazo[1,2-a]pyridin-7-yloxy}-3-methylphenyl)amino]pyrido[3,2-d]pyrimidin-6-yl}pyrrolidin-2-one] | 0.00256 |
| 0.0449 | 1.88 | CCc1ccc(Oc2ccc(Nc3ncnc4ccc(N5CC/C(=C\CN(C)C)C5=O)nc34)cc2C)cn1 [Compound 72, (E)-3-(2-(dimethylamino)ethylidene)-1-(4-((4-((6-ethylpyridin-3-yl)oxy)-3-methylphenyl)amino)pyrido[3,2-d]pyrimidin-6-yl)pyrrolidin-2-one] | 0.00537 |
| 0.0415 | 0.514 | CCc1ccc(Oc2ccc(Nc3ncnc4cnc(N5CC/C(=C\CN(C)C)C5=O)cc34)cc2C)cn1 [Compound 73, (E)-3-(2-(dimethylamino)ethylidene)-1-(4-((4-((6-ethylpyridin-3-yl)oxy)-3-methylphenyl)amino)pyrido[3,4-d]pyrimidin-6-yl)pyrrolidin-2-one] | 0.022 |
| 0.00543 | 2.97 | Cc1cc(Nc2ncnc3cnc(N4CC/C(=C\CN(C)C)C4=O)cc23)ccc1Oc1ccn2ncnc2c1 [Compound 74, (3E)-3-[2-(dimethylamino)ethylidene]-1-{4-[(3-methyl-4-{[1,2,4]triazolo[1,5-a]pyridin-7-yloxy}phenyl)amino]pyrido[3,4-d]pyrimidin-6-yl}pyrrolidin-2-one] | 0.00517 |
| 0.0204 | 0.697 | Cc1ccc(Oc2ccc(Nc3ncnc4cnc(N5CC/C(=C\CN(C)C)C5=O)cc34)cc2C)cn1 [Compound 75, (3E)-3-[2-(dimethylamino)ethylidene]-1-[4-({3-methyl-4-[(6-methylpyridin-3-yl)oxy]phenyl}amino)pyrido[3,4-d]pyrimidin-6-yl]pyrrolidin-2-one] | 0.0104 |
| > 10 | > 10 | Cc1cc(Nc2ncnc3cnc(N4CC/C(=C\CN(C)C)C4=O)cc23)c(F)cc1Oc1ccc2c(c1)ncn2C [Compound 76, (3E)-3-[2-(dimethylamino)ethylidene]-1-[4-({2-fluoro-5-methyl-4-[(1-methyl-1,3-benzodiazol-5-yl)oxy]phenyl}amino)pyrido[3,4-d]pyrimidin-6-yl]pyrrolidin-2-one] | > 0.5 |

— US20240116921A1, “LACTAM (HETERO)[…] DERIVATIVES AS INHIBITORS OF ERBB2” (EnLiven Therapeutics, Inc., priority 2020, published 2024)
